# Target: T1, phosphatase ABI1 via the co-regulator RCAR11/PYR1 (Arabidopsis thaliana, UniProt O49686+P49597)
# T1 sequence (O49686 1-191): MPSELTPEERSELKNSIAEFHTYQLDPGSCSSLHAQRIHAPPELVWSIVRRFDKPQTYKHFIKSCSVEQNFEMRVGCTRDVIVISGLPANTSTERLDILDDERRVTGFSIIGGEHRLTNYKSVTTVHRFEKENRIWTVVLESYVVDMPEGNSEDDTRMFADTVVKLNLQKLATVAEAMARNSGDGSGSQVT
# T1 sequence (P49597 1-434): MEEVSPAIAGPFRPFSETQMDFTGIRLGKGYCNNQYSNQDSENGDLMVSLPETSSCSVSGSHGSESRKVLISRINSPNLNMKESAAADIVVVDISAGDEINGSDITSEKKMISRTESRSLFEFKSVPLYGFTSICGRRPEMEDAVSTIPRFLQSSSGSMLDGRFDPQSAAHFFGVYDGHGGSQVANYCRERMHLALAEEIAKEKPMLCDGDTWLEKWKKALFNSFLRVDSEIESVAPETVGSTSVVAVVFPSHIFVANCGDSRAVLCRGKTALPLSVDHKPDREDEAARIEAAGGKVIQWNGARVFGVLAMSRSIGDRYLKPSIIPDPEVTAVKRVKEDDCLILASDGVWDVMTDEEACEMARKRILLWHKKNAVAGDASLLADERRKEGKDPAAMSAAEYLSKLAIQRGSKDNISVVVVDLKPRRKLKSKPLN
# Assay: In vitro assay: inhibition of the phosphatase ABI1 via the co-regulator RCAR11/PYR1 (dephosphorylation of 4-methylumbelliferyl phosphate, fluorescence)
# Assay type: biochemical
# Conditions: 5 μM substance in a solution of DMSO and water, MUP substrate
# Text: Effects of the phytohormone abscisic acid (ABA) on the behavior of plants under abiotic stress and the mechanism of action of ABA are described in the literature (cf. Abrams et al., WO97/23441, Park et al. Science, 2009, 324, 1068; Grill et al. Science, 2009, 324, 1064; Tanokura et al. Biophysics, 2011, 7, 123; Schroeder et al. Plant J. 2010, 61, 290). Therefore, it is possible with the aid of a suitable in vitro test system to derive a correlation between the action of ABA and the stress response of a plant under abiotic stress. In the event of water deficiency (drought stress), plants form the phytohormone abscisic acid (ABA). […]
# The assay described hereinafter utilizes the inhibition of the phosphatase ABI1 via the co-regulator RCAR11/PYR1 aus Arabidopsis thaliana. For the determination of activity, the dephosphorylation of 4-methylumbelliferyl phosphate (MUP) was measured at 460 nm. […]
# Enzyme buffer mix and substrate mix were made up 5 minutes prior to the addition and warmed to a temperature of 35° C. […] Finally, a relative fluorescence measurement was made at 35° C. with a BMG Labtech “POLARstar Optima” microplate reader using a 340/10 nm excitation filter and a 460 nm emission filter. […]
smiles,measurement,value
CC1=CC(=O)CC(C)(C)[C@@]1(O)/C=C/C(C)=C\C(=O)O [abscisic acid],ABI1 inhibition,++++ (inhibition≥90%)

# Reference: patent publication US20180199575A1, “SUBSTITUTED OXOTETRAHYDROQUINOLINYLPHOSPHINIC ACID AND PHOSPHINIC ACID AMIDES OR SALTS THEREOF AND USE THEREOF TO INCREASE STRESS TOLERANCE IN PLANTS” (priority 2015, published 2018)
